The values that follow come from ChEMBL document CHEMBL5550178, “Synthesis and anticancer properties of novel dolastatin 10 analogs featuring five-membered heterocyclic rings with a linkable group at the C-terminus” (Bioorg Med Chem, 2024).

For one series, the system named is PANC-1. Briefly: Cytotoxicity against human PANC-1 cells assessed as inhibition of cell growth measured after 8 days by XTT cell viability assay. The class given is functional, cell-based. As to conditions: PANC-1, 192 h.
A short description of series [1]: Cytotoxicity against human Fibroblast cells assessed as inhibition of cell growth measured after 8 days by XTT cell viability assay. The class given is toxicity, cell-based. In general terms: Formazan colour is commonly taken as a measure of viable cells.
The subject of the next series is NCI-H1299. Put plainly: Cytotoxicity against human NCI-H1299 cells assessed as inhibition of cell growth measured after 8 days by XTT cell viability assay. The class given is functional, cell-based. As to conditions: NCI-H1299, 192 h.
For series [2], the system named is PC-3. Briefly: Cytotoxicity against human PC-3 cells assessed as inhibition of cell growth measured after 8 days by XTT cell viability assay. The class given is functional, cell-based. As to conditions: PC-3, 192 h.
The next series deals with MDA-MB-231. Put plainly: Cytotoxicity against human MDA-MB-231 cells assessed as inhibition of cell growth measured after 8 days by XTT cell viability assay. The class given is functional, cell-based. As to conditions: MDA-MB-231, 192 h.
For series [3], the system named is PC-3. Put plainly: Induction of cell cycle arrest in human PC-3 cells assessed as accumulation of cells at G1/G0 phase at 1 nM measured after 8 days by PI staining based flow cytometry analysis (reference value: 64.6%). Format: functional. As to conditions: time 8 day. On the technique in general: In flow cytometry, cells or beads pass a laser one at a time.
Series [4] has as its system PC-3. Briefly: Induction of cell cycle arrest in human PC-3 cells assessed as accumulation of cells at G1/G0 phase at 1 nM measured after 6 days by PI staining based flow cytometry analysis (reference value: 70.7%). The class given is functional. As to conditions: time 6 day.
Series [5] concerns PC-3. Briefly: Induction of cell cycle arrest in human PC-3 cells assessed as accumulation of cells at G2/M phase at 1 nM measured after 6 days by PI staining based flow cytometry analysis (reference value: 15.8%). As to conditions: time 6 day. Format: functional.
Series [6] relates to PC-3. Put plainly: Induction of cell cycle arrest in human PC-3 cells assessed as accumulation of cells at G2/M phase at 1 nM measured after 4 days by PI staining based flow cytometry analysis (reference value: 11.9%). Format: functional. As to conditions: time 4 day.
Series [7] has as its system PC-3. Briefly: Induction of cell cycle arrest in human PC-3 cells assessed as accumulation of cells at S phase at 1000 nM measured after 4 days by PI staining based flow cytometry analysis (reference value: 9.87%). Format: functional. As to conditions: time 4 day.
Series [8] has as its system PC-3. Briefly: Induction of cell cycle arrest in human PC-3 cells assessed as accumulation of cells at G1/G0 phase at 1 nM measured after 4 days by PI staining based flow cytometry analysis (reference value: 78.3%). The class given is functional. As to conditions: time 4 day.
In series [9] the test system is PC-3. Briefly: Upregulation of caspase-3 expression in human PC-3 cells at 1 to 50 nM measured after 4 to 8 days by Western blot analysis. The class given is functional, cell-based. As to conditions: dose 1-50 nM, time 4-8 day. On the technique in general: A western blot detects proteins with antibodies after separation by electrophoresis.
Series [10] has as its system PC-3. Briefly: Upregulation of CYP1A1 expression in human PC-3 cells at 1 to 50 nM measured after 4 to 8 days by Western blot analysis. Format: functional, cell-based. As to conditions: dose 1-50 nM, time 4-8 day.
Series [11] has as its system PC-3. Put plainly: Induction of cell cycle arrest in human PC-3 cells assessed as accumulation of cells at S phase at 1000 nM measured after 8 days by PI staining based flow cytometry analysis (reference value: 23.9%). The class given is functional. As to conditions: time 8 day.
The subject of series [12] is PC-3. Put plainly: Induction of cell cycle arrest in human PC-3 cells assessed as accumulation of cells at G2/M phase at 50 nM measured after 8 days by PI staining based flow cytometry analysis (reference value: 12.4%). The class given is functional. As to conditions: time 8 day.
Series [13] has as its system PC-3. Briefly: Induction of cell cycle arrest in human PC-3 cells assessed as accumulation of cells at S phase at 50 nM measured after 4 days by PI staining based flow cytometry analysis (reference value: 9.87%). The class given is functional. As to conditions: time 4 day.
Series [14] has as its system PC-3. Briefly: Induction of cell cycle arrest in human PC-3 cells assessed as accumulation of cells at S phase at 50 nM measured after 6 days by PI staining based flow cytometry analysis (reference value: 14.4%). As to conditions: time 6 day. The class given is functional.
The subject of series [15] is PC-3. Briefly: Induction of cell cycle arrest in human PC-3 cells assessed as accumulation of cells at G1/G0 phase at 1000 nM measured after 6 days by PI staining based flow cytometry analysis (reference value: 70.7%). Format: functional. As to conditions: time 6 day.
Series [16] has as its system PC-3. Put plainly: Induction of cell cycle arrest in human PC-3 cells assessed as accumulation of cells at S phase at 1000 nM measured after 6 days by PI staining based flow cytometry analysis (reference value: 14.4%). The class given is functional. As to conditions: time 6 day.
Series [17] concerns PC-3. Briefly: Induction of cell cycle arrest in human PC-3 cells assessed as accumulation of cells at G2/M phase at 1000 nM measured after 6 days by PI staining based flow cytometry analysis (reference value: 15.8%). The class given is functional. As to conditions: time 6 day.
Series [18] relates to PC-3. Briefly: Induction of cell cycle arrest in human PC-3 cells assessed as accumulation of cells at G1/G0 phase at 50 nM measured after 4 days by PI staining based flow cytometry analysis (reference value: 78.3%). As to conditions: time 4 day. Format: functional.
The test system of series [19] is PC-3. Briefly: Induction of cell cycle arrest in human PC-3 cells assessed as accumulation of cells at G2/M phase at 50 nM measured after 4 days by PI staining based flow cytometry analysis (reference value: 11.9%). As to conditions: time 4 day. The class given is functional.
Series [20] concerns PC-3. Briefly: Induction of cell cycle arrest in human PC-3 cells assessed as accumulation of cells at G1/G0 phase at 1000 nM measured after 4 days by PI staining based flow cytometry analysis (reference value: 78.3%). As to conditions: time 4 day. Format: functional.
Series [21] relates to PC-3. Briefly: Induction of cell cycle arrest in human PC-3 cells assessed as accumulation of cells at G1/G0 phase at 50 nM measured after 6 days by PI staining based flow cytometry analysis (reference value: 70.7%). Format: functional. As to conditions: time 6 day.
Series [22] deals with PC-3. Put plainly: Induction of cell cycle arrest in human PC-3 cells assessed as accumulation of cells at G2/M phase at 1 nM measured after 8 days by PI staining based flow cytometry analysis (reference value: 12.4%). The class given is functional. As to conditions: time 8 day.
Series [23] concerns PC-3. Put plainly: Induction of cell cycle arrest in human PC-3 cells assessed as accumulation of cells at G1/G0 phase at 1000 nM measured after 8 days by PI staining based flow cytometry analysis (reference value: 64.6%). The class given is functional. As to conditions: time 8 day.
Series [24] relates to PC-3. Briefly: Induction of cell cycle arrest in human PC-3 cells assessed as accumulation of cells at S phase at 1 nM measured after 6 days by PI staining based flow cytometry analysis (reference value: 14.4%). The class given is functional. As to conditions: time 6 day.
Series [25] concerns PC-3. Put plainly: Induction of cell cycle arrest in human PC-3 cells assessed as accumulation of cells at G2/M phase at 50 nM measured after 6 days by PI staining based flow cytometry analysis (reference value: 15.8%). The class given is functional. As to conditions: time 6 day.
For series [26], the system named is PC-3. Briefly: Upregulation of BAX expression in human PC-3 cells at 1 to 50 nM measured after 8 days by Western blot analysis. As to conditions: dose 1-50 nM, time 8.0 day. Format: functional, cell-based.
Series [27] relates to PC-3. Put plainly: Induction of cell cycle arrest in human PC-3 cells assessed as accumulation of cells at S phase at 1 nM measured after 4 days by PI staining based flow cytometry analysis (reference value: 9.87%). As to conditions: time 4 day. Format: functional.
For series [28], the system named is PC-3. Put plainly: Induction of cell cycle arrest in human PC-3 cells assessed as accumulation of cells at S phase at 50 nM measured after 8 days by PI staining based flow cytometry analysis (reference value: 23.9%). Format: functional. As to conditions: time 8 day.
Series [29] concerns PC-3. Briefly: Induction of cell cycle arrest in human PC-3 cells assessed as accumulation of cells at S phase at 1 nM measured after 8 days by PI staining based flow cytometry analysis (reference value: 23.9%). The class given is functional. As to conditions: time 8 day.
The subject of series [30] is PC-3. Briefly: Induction of cell cycle arrest in human PC-3 cells assessed as accumulation of cells at G1/G0 phase at 50 nM measured after 8 days by PI staining based flow cytometry analysis (reference value: 64.6%). Format: functional. As to conditions: time 8 day.
In series [31] the test system is PC-3. Put plainly: Upregulation of BAX expression in human PC-3 cells at 1 to 50 nM measured after 6 days by Western blot analysis. The class given is functional, cell-based. As to conditions: dose 1-50 nM, time 6.0 day.
Series [32] deals with PC-3. Put plainly: Induction of cell cycle arrest in human PC-3 cells assessed as accumulation of cells at G2/M phase at 1000 nM measured after 8 days by PI staining based flow cytometry analysis (reference value: 12.4%). The class given is functional. As to conditions: time 8 day.
The test system of series [33] is PC-3. Briefly: Induction of cell cycle arrest in human PC-3 cells assessed as accumulation of cells at G2/M phase at 1000 nM measured after 4 days by PI staining based flow cytometry analysis (reference value: 11.9%). As to conditions: time 4 day. The class given is functional.

Each structure is given as a SMILES string. Activity calls are given as the source filed them. The rule behind the calls is not given here.

`CC[C@H](C)[C@@H]([C@@H](CC(=O)N1CCC[C@H]1[C@H](OC)[C@@H](C)C(=O)N[C@@H](Cc1ccccc1)Cn1cc(CO)nn1)OC)N(C)C(=O)[C@@H](NC(=O)[C@H](C(C)C)N(C)C)C(C)C`: the IC50 stood at 4.7 nM in the series on PANC-1, 7.8 nM in the series on NCI-H1299, 10.9 nM in the series on PC-3 [2] and 63.4 nM with MDA-MB-231. Besides, the IC50 at 8 days in series [1] was 51.5 nM.
For the molecule `CC[C@H](C)[C@@H]([C@@H](CC(=O)N1CCC[C@H]1[C@H](OC)[C@@H](C)C(=O)N[C@@H](Cc1ccccc1)Cn1cc(CN)nn1)OC)N(C)C(=O)[C@@H](NC(=O)[C@H](C(C)C)N(C)C)C(C)C`, the IC50 in the series with PANC-1 worked out at 10.4 nM; in the series with NCI-H1299, 18.7 nM; in the series with PC-3 [2], 15.5 nM; in the series on MDA-MB-231, 94.6 nM. In addition, in [1], the IC50 at 8 days amounted to 73.7 nM.
Taken in the same sequence, the figures for `CC[C@H](C)[C@@H]([C@@H](CC(=O)N1CCC[C@H]1[C@H](OC)[C@@H](C)C(=O)N[C@@H](Cc1ccccc1)Cn1cc(CNC)nn1)OC)N(C)C(=O)[C@@H](NC(=O)[C@H](C(C)C)N(C)C)C(C)C` were 1.3 nM, 4.7 nM, 8.9 nM, 19.8 nM and 38.4 nM.
Taken in the same sequence, the figures for `CC[C@H](C)[C@@H]([C@@H](CC(=O)N1CCC[C@H]1[C@H](OC)[C@@H](C)C(=O)N[C@@H](Cc1ccccc1)Cn1cc(C(=O)O)nn1)OC)N(C)C(=O)[C@@H](NC(=O)[C@H](C(C)C)N(C)C)C(C)C` were 52 nM, 137 nM, 15.7 nM, 93.9 nM and 39.2 nM.
As to `CC[C@H](C)[C@@H]([C@@H](CC(=O)N1CCC[C@H]1[C@H](OC)[C@@H](C)C(=O)N[C@@H](Cc1ccccc1)c1nc(CN)cs1)OC)N(C)C(=O)[C@@H](NC(=O)[C@H](C(C)C)N(C)C)C(C)C`, the Activity in the series with PC-3 [3] is listed as 65.9%; in the series with PC-3 [4] it was 35.5%; in the series with PC-3 [5], 36.5%; with PC-3 [6], 9.06%; in the series with PC-3 [7], 17.8%; in the series on PC-3 [8], 77.1%. The Activity in the series with PC-3 [11] is recorded as 40.9%; in the series with PC-3 [12], 24%; in the series with PC-3 [13] it was 19.1%; in the series on PC-3 [14], 26.4%; with PC-3 [15] it was 59.2%; in the series with PC-3 [16] it was 29.3%. The Activity with PC-3 [17] was determined as 12.8%; with PC-3 [18], 69.8%; in the series with PC-3 [19], 12%; in the series on PC-3 [20], 64.5%; in the series on PC-3 [21], 59.6%; with PC-3 [22], 9.28%. Also, the Activity is on record as 38.1% in the series with PC-3 [23]; 29.5% in the series on PC-3 [24]; 15.3% in the series on PC-3 [25]; 14.5% with PC-3 [27]; 34.1% with PC-3 [28]; 26.1% with PC-3 [29]. Besides, the results for the Activity in the series on PC-3 [30], with PC-3 [32] and with PC-3 [33] were 43.3%, 22.9% and 18.5%, respectively. Moreover, the IC50 in the series with PANC-1 came to 0.2 nM; in the series with NCI-H1299 it was 3.1 nM; in the series on PC-3 [2] it was 0.9 nM; with MDA-MB-231, 36.2 nM. Also, the IC50 at 8 days in series [1] is 38.5 nM. Moreover, the result in the series on PC-3 [9], in the series on PC-3 [10] and in the series with PC-3 [31] was Active. For the same molecule, the result in the series on PC-3 [26] was inactive.

The IC50 is the midpoint of a concentration-inhibition curve.
